Laboratory results from patent US10597388B2, “Pyridazinone herbicides” (FMC CORPORATION, priority 2014, dated 2020).

What was measured:
Type in all cases: in vivo
[1] = test system: barnyardgrass (Echinochloa crus-galli); assay: Test C greenhouse herbicide test, pre- and postemergence
Procedure, shortened: (§1)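 Greenhouse pots; pre-em on seeded loam:sand blend, post-em on 2–18 cm plants (1–4 leaf) in sphagnum peat/vermiculite medium. Formulation: non-phytotoxic solvent + surfactant. Read-out: visual % control (0–100) vs controls at 13–15 d.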

[2] = test system: blackgrass (Alopecurus myosuroides); assay: as above
Procedure, shortened: as §1

corn (Zea mays) = assay: as above
Procedure, shortened: as §1

[3] = test system: crabgrass, large (large crabgrass, Digitaria sanguinalis); assay: as above
Procedure, shortened: as §1

[4] = test system: foxtail, giant (giant foxtail, Setaria faberii); assay: as above
Procedure, shortened: as §1

[5] = test system: johnsongrass (Sorghum halepense); assay: as above
Procedure, shortened: as §1

[6] = test system: lambsquarters (Chenopodium album); assay: as above
Procedure, shortened: as §1

[7] = test system: morningglory (Ipomoea coccinea); assay: as above
Procedure, shortened: as §1

[8] = test system: nutsedge, yellow (yellow nutsedge, Cyperus esculentus); assay: as above
Procedure, shortened: as §1

[9] = test system: oilseed rape (Brassica napus); assay: as above
Procedure, shortened: as §1

[10] = test system: pigweed (Amaranthus retroflexus); assay: as above
Procedure, shortened: as §1

[11] = test system: velvetleaf (Abutilon theophrasti); assay: as above
Procedure, shortened: as §1

[12] = test system: waterhemp (common waterhemp, Amaranthus rudis); assay: as above
Procedure, shortened: as §1

[13] = test system: wheat (winter wheat, Triticum aestivum); assay: as above
Procedure, shortened: as §1

kochia (Kochia scoparia) = assay: Test C greenhouse herbicide test, postemergence
Procedure, shortened: (§2)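 Seedlings are raised in pots of peat moss–vermiculite medium with starter nutrients, then receive postemergence test chemical at the 1- to 4-leaf stage. They are kept in the greenhouse 13 to 15 d and scored visually versus controls, 0 meaning no effect and 100 complete control.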

[14] = test system: oat, wild (wild oat, Avena fatua); assay: Test C greenhouse herbicide test, postemergence
Procedure, shortened: as §2

[15] = Postemergence, 31 g ai/ha, scale 0 to 100 (0 no effect, 100 complete control)
[16] = Postemergence, 62 g ai/ha, 0 to 100 scale (0 no effect, 100 complete control)
[17] = Postemergence, 250 g ai/ha, scale 0 to 100, 0 no effect, 100 complete control, 13 to 15 d
[18] = Preemergence, 31 g ai/ha, scale 0 to 100, 0 is no effect, 100 is complete control
[19] = Preemergence, 62 g ai/ha, scale 0 to 100, 0 is no effect, 100 is complete control
[20] = Preemergence, 125 g ai/ha, scale 0 to 100, 0 is no effect, 100 is complete control
[21] = Preemergence, 250 g ai/ha, scale 0 to 100 (0 no effect, 100 complete control)
[22] = postemergence, 125 g ai/ha, scale 0 to 100, 0 no effect, 100 complete control

CC(=O)Oc1c(Br)nn(C)c(=O)c1-c1c(C)ccc2ccccc12 [Compound 129]
98: Foxtail, Giant plant response rating [4, 21] | Plant response rating, Lambsquarters [6, 17] | Plant response rating, Morningglory [7, 15] | Morningglory plant response rating [7, 21] | Plant response rating, Pigweed [10, 17] | Plant response rating, Pigweed [10, 19] | Plant response rating, Pigweed [10, 20] | Pigweed plant response rating [10, 22] | Plant response rating, Velvetleaf [11, 20] | Velvetleaf plant response rating [11, 21] | Plant response rating, Waterhemp [12, 17] | Plant response rating, Oat, Wild [14, 17]
95: Plant response rating, Foxtail, Giant [4, 17] | Plant response rating, Foxtail, Giant [4, 20] | Plant response rating, Lambsquarters [6, 15] | Lambsquarters plant response rating [6, 16] | Lambsquarters plant response rating [6, 22] | Plant response rating, Nutsedge, Yellow [8, 17] | Nutsedge, Yellow plant response rating [8, 21] | Plant response rating, Pigweed [10, 15] | Pigweed plant response rating [10, 16] | Velvetleaf plant response rating [11, 16] | Velvetleaf plant response rating [11, 22] | Plant response rating, Waterhemp [12, 19] | Plant response rating, Kochia (kochia (Kochia scoparia); [17])
65: Barnyardgrass plant response rating [1, 16]
35: Plant response rating, Blackgrass [2, 15] | Crabgrass, Large plant response rating [3, 22] | Wheat plant response rating [13, 16] | Plant response rating, Wheat [13, 18]
0: Plant response rating, Corn (corn (Zea mays); [15]) | Plant response rating, Corn (corn (Zea mays); [18]) | Plant response rating, Oilseed Rape [9, 15] | Oilseed Rape plant response rating [9, 16]
70: Plant response rating, Barnyardgrass ([1]; Postemergence, 125 g ai/ha, scale 0 to 100, 0 is no effect, 100 is complete control) | Plant response rating, Barnyardgrass [1, 19] | Plant response rating, Blackgrass [2, 20] | Plant response rating, Velvetleaf [11, 18] | Waterhemp plant response rating [12, 16]
80: Plant response rating, Blackgrass [2, 17] | Blackgrass plant response rating [2, 21] | Plant response rating, Lambsquarters [6, 19]
90: Barnyardgrass plant response rating [1, 21] | Plant response rating, Foxtail, Giant [4, 19] | Lambsquarters plant response rating [6, 21] | Plant response rating, Morningglory [7, 19] | Plant response rating, Morningglory [7, 20] | Plant response rating, Nutsedge, Yellow [8, 20] | Plant response rating, Oilseed Rape [9, 20] | Oilseed Rape plant response rating [9, 21] | Plant response rating, Waterhemp [12, 18] | Kochia plant response rating (kochia (Kochia scoparia); [22]) | Oat, Wild plant response rating [14, 16]
40: Blackgrass plant response rating [2, 16] | Corn plant response rating (corn (Zea mays); [21]) | Wheat plant response rating [13, 22]
55: Plant response rating, Nutsedge, Yellow [8, 18] | Plant response rating, Wheat [13, 17] | Plant response rating, Wheat [13, 20]
25: Plant response rating, Crabgrass, Large [3, 19] | Plant response rating, Johnsongrass [5, 17] | Johnsongrass plant response rating [5, 21]
15: Plant response rating, Barnyardgrass [1, 18] | Plant response rating, Corn (corn (Zea mays); [20]) | Johnsongrass plant response rating [5, 16] | Johnsongrass plant response rating [5, 22]
50: Plant response rating, Barnyardgrass [1, 15] | Plant response rating, Oilseed Rape [9, 19] | Plant response rating, Wheat [13, 19] | Plant response rating, Kochia (kochia (Kochia scoparia); [15])
75: Plant response rating, Crabgrass, Large [3, 20] | Foxtail, Giant plant response rating [4, 16] | Nutsedge, Yellow plant response rating [8, 16] | Plant response rating, Waterhemp [12, 15]
30: Plant response rating, Blackgrass [2, 19] | Plant response rating, Corn (corn (Zea mays); [17]) | Corn plant response rating (corn (Zea mays); [22]) | Crabgrass, Large plant response rating [3, 16]
85: Plant response rating, Barnyardgrass [1, 17] | Crabgrass, Large plant response rating [3, 21] | Plant response rating, Foxtail, Giant [4, 18] | Foxtail, Giant plant response rating [4, 22] | Plant response rating, Lambsquarters [6, 18] | Plant response rating, Lambsquarters [6, 20] | Plant response rating, Morningglory [7, 18] | Plant response rating, Nutsedge, Yellow [8, 19] | Nutsedge, Yellow plant response rating [8, 22] | Plant response rating, Velvetleaf [11, 15] | Plant response rating, Velvetleaf [11, 19] | Waterhemp plant response rating [12, 22] | Wheat plant response rating [13, 21] | Plant response rating, Oat, Wild [14, 15]
100: Plant response rating, Barnyardgrass [1, 20] | Morningglory plant response rating [7, 16] | Plant response rating, Morningglory [7, 17] | Morningglory plant response rating [7, 22] | Plant response rating, Pigweed [10, 18] | Pigweed plant response rating [10, 21] | Plant response rating, Velvetleaf [11, 17] | Plant response rating, Waterhemp [12, 20] | Waterhemp plant response rating [12, 21] | Oat, Wild plant response rating [14, 22]
20: Corn plant response rating (corn (Zea mays); [16]) | Plant response rating, Crabgrass, Large [3, 15]
10: Plant response rating, Johnsongrass [5, 15] | Plant response rating, Johnsongrass [5, 20] | Plant response rating, Wheat [13, 15]
60: Blackgrass plant response rating [2, 22] | Plant response rating, Crabgrass, Large [3, 17] | Plant response rating, Foxtail, Giant [4, 15] | Plant response rating, Nutsedge, Yellow [8, 15] | Kochia plant response rating (kochia (Kochia scoparia); [16])
5: Plant response rating, Blackgrass [2, 18] | Plant response rating, Corn (corn (Zea mays); [19]) | Plant response rating, Crabgrass, Large [3, 18] | Plant response rating, Johnsongrass [5, 18] | Plant response rating, Johnsongrass [5, 19] | Plant response rating, Oilseed Rape [9, 17] | Plant response rating, Oilseed Rape [9, 18] | Oilseed Rape plant response rating [9, 22]
